Experimental data from patent US10208033B2, “β-carboline, dihydro-β-carboline and tetrahydro-β-carboline alkaloid derivatives and preparation methods same and use in aspects of preventing and treating plant viruses, fungicides and insecticides” (NANKAI UNIVERSITY, priority 2013, dated 2019).
Read-outs that look alike come from different tables or passages of the source.

Key:
cucumber fusarium wilt = test: Fungicidal (bactericidal) activity in vitro, PDA colony diameter; assay type: cell-based; conditions: 50 mg/kg; for inhibition of growth at 50 mg/kg: Fusarium, 96 h
Cercospora arachidicola = test: as above; assay type: cell-based; conditions: 50 mg/kg; for inhibition of growth at 50 mg/kg: Mycosphaerella arachidis, 96 h
Macrophoma kawatsukai = test: as above; assay type: cell-based; conditions: 50 mg/kg
Alternaria solani = test: as above; assay type: cell-based; conditions: 50 mg/kg; for inhibition of growth at 50 mg/kg: Alternaria solani, 96 h
Fusarium graminearumt = test: microbe, parasite or virus in culture; assay type: cell-based; conditions: for inhibition of growth at 50 mg/kg: Fusarium, 96 h, read-out: Bactericidal activity (%) Fusarium graminearumt; for Bactericidal activity (%) Fusarium graminearumt: 50 mg/kg
potato late blight = test: microbe, parasite or virus in culture; assay type: cell-based; conditions: for inhibition of growth at 50 mg/kg: Phytophthora infestans, 96 h, read-out: Bactericidal activity (%) potato late blight
Sclerotinia scleotiorum = test: Fungicidal (bactericidal) activity in vitro, PDA colony diameter; assay type: cell-based; conditions: 50 mg/kg; for inhibition of growth at 50 mg/kg: Sclerotinia, 96 h
Botrytis cinerea = test: as above; assay type: cell-based; conditions: for inhibition of growth at 50 mg/kg: Botrytis cinerea, 96 h
Rhizoctonia solani = test: as above; assay type: cell-based; conditions: 50 mg/kg; for inhibition of growth at 50 mg/kg: Rhizoctonia solani, 96 h
Phytophthora capsici = test: as above; assay type: cell-based; conditions: 50 mg/kg; for inhibition of growth at 50 mg/kg: Phytophthora capsici, 96 h
Fusarium fujikuroi = test: as above; assay type: cell-based; conditions: 50 mg/kg; for inhibition of growth at 50 mg/kg: Fusarium fujikuroi, 96 h
Rhizoctonia cereali = test: as above; assay type: cell-based; conditions: 50 mg/kg; for inhibition of growth at 50 mg/kg: Rhizoctonia, 96 h
Bipolaria maydis = test: organism not typed; assay type: cell-based; conditions: for inhibition at 50 mg/kg: read-out: Bactericidal activity (%) Bipolaria maydis; for Bactericidal activity (%) Bipolaria maydis: 50 mg/kg
[1] = system: Colletotrichum orbiculare; test: Fungicidal (bactericidal) activity in vitro, PDA colony diameter; assay type: cell-based; conditions: 50 mg/kg; for inhibition of growth at 50 mg/kg: Colletotrichum orbiculare, 96 h
[2] = system: tobacco mosaic virus (TMV); test: Anti-TMV in vitro effect (half-leaf soaking); assay type: cell-based, tobacco mosaic virus (host Nicotiana tabacum L.cv.Xanthi NN)
[3] = system: tobacco mosaic virus (TMV); test: Anti-TMV in vivo inactivation; set-up: species or system tobacco mosaic virus (host Nicotiana tabacum L.cv.Xanthi NN)
[4] = system: tobacco mosaic virus (TMV); test: Anti-TMV in vivo therapeutic effect; set-up: species or system tobacco mosaic virus (host Nicotiana tabacum L.cv.Xanthi NN)
[5] = system: tobacco mosaic virus (TMV); test: Anti-TMV in vivo protective effect; set-up: species or system tobacco mosaic virus (host Nicotiana tabacum L.cv.Xanthi NN)
armyworms = assay type: in vivo; conditions: concentration 600 mg/kg
cotton bollworms = test: whole plant or invertebrate
Method: Experimental method of cotton bollworms: feed and drug mixing method: measure 3 mL of prepared solution and add it to about 27 g of newly prepared feed, thereby obtaining needed concentration through dilution by 10 times.

mosquito larvae = test: whole plant or invertebrate; conditions: 24 h
Method: Experimental method of mosquito larvae: culex pipiens pallens, a normal colony raised indoors. Weigh about 5 mg of the compound for test, put it in a penicillin vial, add 5 mL of acetone (or an appropriate solvent), and shake and dissolve it to obtain a 1000 ppm mother solution. Pipette 0.5 mL of the mother solution, add it to a 100 mL beaker filled with 89.9 mL of water, select 10 mosquito larvae at the beginning of the fourth instar, and pour them to a beaker together with 10 mL of feeding solution. The concentration of the drug solution is 5 ppm. […] Use an aqueous solution containing 0.5 mL of test solvent as a blank.

Structure (SMILES): COC(=O)Nc1nc2ccccc2[nH]1 [Carbendazim]
- inhibition of growth at 50 mg/kg (cucumber fusarium wilt): < 50%
- inhibition of growth at 50 mg/kg (Cercospora arachidicola): < 50%
- inhibition at 50 mg/kg (Macrophoma kawatsukai): < 50%
- inhibition of growth at 50 mg/kg (Alternaria solani): < 50%
- inhibition of growth at 50 mg/kg (Fusarium graminearumt): 100%
- inhibition of growth at 50 mg/kg (potato late blight): 100%
- inhibition of growth at 50 mg/kg (Sclerotinia scleotiorum): 100%
- inhibition of growth at 50 mg/kg (Botrytis cinerea; 50 mg/kg): < 50%
- inhibition of growth at 50 mg/kg (Rhizoctonia solani): 100%
- inhibition of growth at 50 mg/kg (Phytophthora capsici): < 50%
- inhibition of growth at 50 mg/kg (Fusarium fujikuroi): < 50%
- inhibition of growth at 50 mg/kg (Rhizoctonia cereali): 100%
- inhibition at 50 mg/kg (Bipolaria maydis): 100%
- inhibition of growth at 50 mg/kg [1]: 100%

Structure (SMILES): N#Cc1c(Cl)c(Cl)c(Cl)c(C#N)c1Cl [Chlorothalonil]
- inhibition of growth at 50 mg/kg (cucumber fusarium wilt): 100%
- inhibition of growth at 50 mg/kg (Cercospora arachidicola): 73.3%
- inhibition at 50 mg/kg (Macrophoma kawatsukai): 100%
- inhibition of growth at 50 mg/kg (Alternaria solani): 73.3%
- inhibition of growth at 50 mg/kg (Fusarium graminearumt): < 50%
- inhibition of growth at 50 mg/kg (potato late blight): 86.4%
- inhibition of growth at 50 mg/kg (Sclerotinia scleotiorum): < 50%
- inhibition of growth at 50 mg/kg (Botrytis cinerea; 50 mg/kg): 100%
- inhibition of growth at 50 mg/kg (Rhizoctonia solani): 100%
- inhibition of growth at 50 mg/kg (Phytophthora capsici): 100%
- inhibition of growth at 50 mg/kg (Fusarium fujikuroi): 100%
- inhibition of growth at 50 mg/kg (Rhizoctonia cereali): 100%
- inhibition at 50 mg/kg (Bipolaria maydis): 91.3%
- inhibition of growth at 50 mg/kg [1]: 91.3%

Structure (SMILES): Cc1nccc2c1[nH]c1cc(OC(=O)N(C)C)ccc12 [Ia-6, dimethylcarbamate (1-methylpyridino [3,4-b]indol-7)-ester]
- Relative inhibition rate (%) In vitro activity ([2]; treatment dose 100 μg/mL): 0%
- Relative inhibition rate (%) In vitro activity ([2]; treatment dose 500 μg/mL): 12.6%
- Relative inhibition rate (%) In vivo inactivation ([3]; treatment dose 100 μg/mL): 0%
- Relative inhibition rate (%) In vivo inactivation ([3]; treatment dose 500 μg/mL): 12%
- Relative inhibition rate (%) In vivo therapy ([4]; treatment dose 100 μg/mL): 0%
- Relative inhibition rate (%) In vivo therapy ([4]; treatment dose 500 μg/mL): 15.6%
- Relative inhibition rate (%) In vivo protection ([5]; treatment dose 100 μg/mL): 0%
- Relative inhibition rate (%) In vivo protection ([5]; treatment dose 500 μg/mL): 18.7%
- Bactericidal activity (%) Cucumber fusarium wilt (cucumber fusarium wilt): 23.1%
- Bactericidal activity (%) Cercospora arachidicola (Cercospora arachidicola): 53.9%
- Bactericidal activity (%) Macrophoma kawatsukai (Macrophoma kawatsukai): 26.2%
- Bactericidal activity (%) Alternaria solani (Alternaria solani): 15.8%
- Bactericidal activity (%) Fusarium graminearumt (Fusarium graminearumt): 38.1%
- Bactericidal activity (%) potato late blight (potato late blight): 9.1%
- Bactericidal activity (%) Sclerotinia scleotiorum (Sclerotinia scleotiorum): 7.8%
- Bactericidal activity (%) Botrytis cinerea (Botrytis cinerea; 50 mg/kg): 12.1%
- Bactericidal activity (%) Rhizoctonia solani (Rhizoctonia solani): 46.1%
- Bactericidal activity (%) Phytophthora capsici (Phytophthora capsici): 9.4%
- Bactericidal activity (%) Fusarium fujikuroi (Fusarium fujikuroi): 21.4%
- Bactericidal activity (%) Rhizoctonia cereali (Rhizoctonia cereali): 36.8%
- Bactericidal activity (%) Bipolaria maydis (Bipolaria maydis): 27.3%
- Bactericidal activity (%) Colletotrichum orbiculare [1]: 35.7%
- Armyworm Mortality (%) (armyworms): 45%
- Cotton bollworm Mortality (%) (cotton bollworms; concentration 600 mg/kg): 20%
- Mosquito larvae Mortality (%) (mosquito larvae; concentration 5 mg/kg): 20%
- Mosquito larvae Mortality (%) (mosquito larvae; concentration 10 mg/kg): 100%
- Corn borer Mortality (%) (corn borers; concentration 600 mg/kg): 35%

Structure (SMILES): O=C(O)[C@@H]1Cc2c([nH]c3ccccc23)[C@H](c2cccnc2)N1 [Ib-6, (1S, 3S)-1-(pyridine-3)-2,3,4,9-tetrahydropyridino [3,4-b] indol-3-formic acid]
- Relative inhibition rate (%) In vitro activity ([2]; treatment dose 100 μg/mL): 0%
- Relative inhibition rate (%) In vitro activity ([2]; treatment dose 500 μg/mL): 25%
- Relative inhibition rate (%) In vivo inactivation ([3]; treatment dose 100 μg/mL): 0%
- Relative inhibition rate (%) In vivo inactivation ([3]; treatment dose 500 μg/mL): 17.5%
- Relative inhibition rate (%) In vivo therapy ([4]; treatment dose 100 μg/mL): 0%
- Relative inhibition rate (%) In vivo therapy ([4]; treatment dose 500 μg/mL): 21.4%
- Relative inhibition rate (%) In vivo protection ([5]; treatment dose 100 μg/mL): 0%
- Relative inhibition rate (%) In vivo protection ([5]; treatment dose 500 μg/mL): 24.8%
- Bactericidal activity (%) Cucumber fusarium wilt (cucumber fusarium wilt): 26.9%
- Bactericidal activity (%) Cercospora arachidicola (Cercospora arachidicola): 84.6%
- Bactericidal activity (%) Macrophoma kawatsukai (Macrophoma kawatsukai): 61.9%
- Bactericidal activity (%) Alternaria solani (Alternaria solani): 26.3%
- Bactericidal activity (%) Fusarium graminearumt (Fusarium graminearumt): 31.0%
- Bactericidal activity (%) potato late blight (potato late blight): 27.3%
- Bactericidal activity (%) Sclerotinia scleotiorum (Sclerotinia scleotiorum): 29.4%
- Bactericidal activity (%) Botrytis cinerea (Botrytis cinerea): 27.3%
- Bactericidal activity (%) Rhizoctonia solani (Rhizoctonia solani): 32.9%
- Bactericidal activity (%) Phytophthora capsici (Phytophthora capsici): 9.4%
- Bactericidal activity (%) Fusarium fujikuroi (Fusarium fujikuroi): 14.3%
- Bactericidal activity (%) Rhizoctonia cereali (Rhizoctonia cereali): 63.2%
- Bactericidal activity (%) Bipolaria maydis (Bipolaria maydis): 36.4%
- Bactericidal activity (%) Colletotrichum orbiculare [1]: 32.1%
- Armyworm Mortality (%) (armyworms): 45%
- Cotton bollworm Mortality (%) (cotton bollworms; in vivo): 20%
- Corn borer Mortality (%) (corn borers; in vivo): 40%
